For test [1], the system named is Escherichia coli. The experiment in a line: Antibacterial activity against ESBLs negative Escherichia coli ATCC 25922 by agar method. It is filed as functional.
The next test relates to A549. As to the kind of experiment: Cytotoxicity against human A549 cells. In kind it is cell-based.
Test [2] deals with Staphylococcus aureus. As to the kind of experiment: Antibacterial activity against methicillin-sensitive Staphylococcus aureus ATCC 29213 by agar method. It is filed as functional.
In test [3] the test system is Staphylococcus epidermidis. As to the kind of experiment: Antibacterial activity against methicillin-resistant Staphylococcus epidermidis 16-5 by agar method. In kind it is functional.
The subject of the next test is Acinetobacter baumannii. The experiment in a line: Antibacterial activity against carbapenem-resistant Acinetobacter baumannii 16-33 by agar method. It is filed as functional.
Test [4] concerns Staphylococcus aureus. The experiment in a line: Antibacterial activity against methicillin-resistant Staphylococcus aureus ATCC 33591 by agar method. In kind it is functional.
Test [5] relates to Escherichia coli. As to the kind of experiment: Antibacterial activity against ESBLs positive Escherichia coli ATCC 35218 by agar method. In kind it is functional.
The test system of test [6] is Staphylococcus epidermidis. As to the kind of experiment: Antibacterial activity against methicillin-sensitive Staphylococcus epidermidis ATCC 12228 by agar method. It is filed as functional.
Test [7] has as its system Enterococcus faecalis. The experiment in a line: Antibacterial activity against vancomycin-resistant Enterococcus faecalis ATCC 51299 by agar method. It is filed as functional.
The test system of test [8] is Escherichia coli. The experiment in a line: Antibacterial activity against NDM-1 positive Escherichia coli ATCC 2469 by agar method. In kind it is functional.
Test [9] has as its system Enterococcus faecalis. The experiment in a line: Antibacterial activity against Vancomycin-sensitive Enterococcus faecalis ATCC 29212 by agar method. It is filed as functional.

pIC50: −log10 of the molar value. Converted amounts (≈) assume the structure as drawn.

For `O=C(/C=C/c1ccccn1)c1ccc2ccc(C(F)(F)F)cc2n1`, the MIC in the test with Escherichia coli [1] was more than 32 µg/mL; with Staphylococcus aureus [2], 4 µg/mL (≈ 12.2 µM); in [3], 4 µg/mL (≈ 12.2 µM); in the test on Acinetobacter baumannii, more than 32 µg/mL; against Staphylococcus aureus [4] it was 2 µg/mL (≈ 6.09 µM); in the test on Escherichia coli [5] it was more than 32 µg/mL. For the same compound, the MIC in test [6] was 2 µg/mL (≈ 6.09 µM); in the test with Enterococcus faecalis [7], more than 32 µg/mL; against Escherichia coli [8], more than 32 µg/mL; in the test on Enterococcus faecalis [9] it was 32 µg/mL (≈ 97.5 µM). The pIC50 with A549 was 4.95.

In the case of `O=C(/C=C/c1ccc2c(C(F)(F)F)cccc2n1)c1ccccn1`, the MIC is more than 128 µg/mL in the test on Escherichia coli [1]; 1 µg/mL (≈ 3.05 µM) in the test on Staphylococcus aureus [2]; 2 µg/mL (≈ 6.09 µM) in test [3]; 128 µg/mL (≈ 390 µM) against Acinetobacter baumannii; 1 µg/mL (≈ 3.05 µM) against Staphylococcus aureus [4]; more than 128 µg/mL in the test on Escherichia coli [5]. For the same compound, the MIC in [6] was 2 µg/mL (≈ 6.09 µM); against Enterococcus faecalis [7], more than 128 µg/mL; in the test with Escherichia coli [8], more than 128 µg/mL; against Enterococcus faecalis [9] it was more than 128 µg/mL. This compound gave a pIC50 with A549 of 4.37.

`O=C(/C=C/c1ccc2ccc(C(F)(F)F)cc2n1)c1ccccn1`: the MIC with Escherichia coli [1] was more than 128 µg/mL; in the test with Staphylococcus aureus [2] it was 1 µg/mL (≈ 3.05 µM); in test [3] it was 4 µg/mL (≈ 12.2 µM); in the test with Acinetobacter baumannii, 128 µg/mL (≈ 390 µM); in the test with Staphylococcus aureus [4] it was 2 µg/mL (≈ 6.09 µM); with Escherichia coli [5], more than 128 µg/mL. Further, the MIC in [6] was 4 µg/mL (≈ 12.2 µM); in the test on Enterococcus faecalis [7], 128 µg/mL (≈ 390 µM); in the test with Escherichia coli [8] it was more than 128 µg/mL; in the test with Enterococcus faecalis [9] it was more than 128 µg/mL. Moreover, in the test with A549, the pIC50 is 4.99.

Take `O=C(/C=C/c1ccc2c(C(F)(F)F)cccc2n1)c1ccncc1`: the MIC was more than 128 µg/mL in the test on Escherichia coli [1]; 1 µg/mL (≈ 3.05 µM) against Staphylococcus aureus [2]; 4 µg/mL (≈ 12.2 µM) in test [3]; 128 µg/mL (≈ 390 µM) in the test on Acinetobacter baumannii; 1 µg/mL (≈ 3.05 µM) with Staphylococcus aureus [4]; more than 128 µg/mL with Escherichia coli [5]. In addition, the MIC in test [6] was 2 µg/mL (≈ 6.09 µM); in the test on Enterococcus faecalis [7], more than 128 µg/mL; in the test on Escherichia coli [8], more than 128 µg/mL; with Enterococcus faecalis [9], more than 128 µg/mL. The compound further gave a pIC50 in the test with A549 of 4.34.

Turning to `O=C(/C=C/c1ccc2ccc(C(F)(F)F)cc2n1)c1cccnc1`, the MIC against Escherichia coli [1] was more than 32 µg/mL; in the test on Staphylococcus aureus [2], 1 µg/mL (≈ 3.05 µM); in [3] it was 2 µg/mL (≈ 6.09 µM); against Acinetobacter baumannii, more than 32 µg/mL; against Staphylococcus aureus [4] it was 1 µg/mL (≈ 3.05 µM); in the test with Escherichia coli [5], more than 32 µg/mL. Besides, the MIC in [6] is 1 µg/mL (≈ 3.05 µM); in the test on Enterococcus faecalis [7], 4 µg/mL (≈ 12.2 µM); in the test with Escherichia coli [8] it was more than 32 µg/mL; in the test with Enterococcus faecalis [9], 4 µg/mL (≈ 12.2 µM). Further, the pIC50 with A549 was 5.01.

In the case of `O=C(/C=C/c1ccc2ccc(C(F)(F)F)cc2n1)c1ccc(O)c(O)c1`, the MIC was more than 128 µg/mL against Escherichia coli [1]; 32 µg/mL (≈ 89.1 µM) in the test on Staphylococcus aureus [2]; 16 µg/mL (≈ 44.5 µM) in test [3]; more than 128 µg/mL in the test on Acinetobacter baumannii; 32 µg/mL (≈ 89.1 µM) against Staphylococcus aureus [4]; more than 128 µg/mL against Escherichia coli [5]. In addition, the MIC was 16 µg/mL (≈ 44.5 µM) in test [6], more than 128 µg/mL with Enterococcus faecalis [7], more than 128 µg/mL with Escherichia coli [8] and more than 128 µg/mL against Enterococcus faecalis [9].

For the compound `O=C(/C=C/c1ccc2ccccc2n1)c1ccncc1`, the MIC in the test on Escherichia coli [1] was more than 32 µg/mL; in the test with Staphylococcus aureus [2] it was 32 µg/mL (≈ 123 µM); in test [3], 32 µg/mL (≈ 123 µM); with Acinetobacter baumannii it was more than 32 µg/mL; in the test on Staphylococcus aureus [4], 32 µg/mL (≈ 123 µM); with Escherichia coli [5] it was more than 32 µg/mL. Also, the minimal inhibitory concentration (MIC) in test [6] is 32 µg/mL (≈ 123 µM); against Enterococcus faecalis [7], 32 µg/mL (≈ 123 µM); against Escherichia coli [8], more than 32 µg/mL; against Enterococcus faecalis [9] it was 32 µg/mL (≈ 123 µM).

Turning to `O=C(/C=C/c1ccc2ncccc2c1)c1ccncc1`, the MIC against Escherichia coli [1] is more than 128 µg/mL; in the test with Staphylococcus aureus [2] it was 8 µg/mL (≈ 30.7 µM); in test [3], 16 µg/mL (≈ 61.5 µM); against Acinetobacter baumannii, 128 µg/mL (≈ 492 µM); with Staphylococcus aureus [4], 8 µg/mL (≈ 30.7 µM); in the test with Escherichia coli [5] it was more than 128 µg/mL. In addition, the MIC in test [6] was 16 µg/mL (≈ 61.5 µM); in the test on Enterococcus faecalis [7], 32 µg/mL (≈ 123 µM); against Escherichia coli [8], more than 128 µg/mL; against Enterococcus faecalis [9], 32 µg/mL (≈ 123 µM).

As for `O=C(/C=C/c1cnc2ccccc2c1)c1ccccn1`, the MIC with Escherichia coli [1] was more than 128 µg/mL; with Staphylococcus aureus [2] it was 8 µg/mL (≈ 30.7 µM); in test [3], 8 µg/mL (≈ 30.7 µM); against Acinetobacter baumannii it was 128 µg/mL (≈ 492 µM); against Staphylococcus aureus [4] it was 8 µg/mL (≈ 30.7 µM); against Escherichia coli [5] it was more than 128 µg/mL. Besides, the MIC in test [6] is 8 µg/mL (≈ 30.7 µM); with Enterococcus faecalis [7], 32 µg/mL (≈ 123 µM); against Escherichia coli [8] it was more than 128 µg/mL; against Enterococcus faecalis [9], 32 µg/mL (≈ 123 µM).

The term MIC denotes the lowest concentration that inhibits growth of the organism. A word on the pIC50: it is −log10 of the IC50, conventionally taken in molar units. Higher therefore signals a low IC50.
